In the supplement of paper PMC10307832:

What was measured:
Assay in all cases: relative viability (nuclei count vs DMSO), 5 days (fraction); higher = more cells survive
Palbociclib + Trametinib = compound: CC(=O)c1c(C)c2cnc(Nc3ccc(N4CCNCC4)cn3)nc2n(C2CCCC2)c1=O [Palbociclib] + CC(=O)Nc1cccc(-n2c(=O)n(C3CC3)c(=O)c3c(Nc4ccc(I)cc4F)n(C)c(=O)c(C)c32)c1 [Trametinib] (partner 0.02 µM)
How it was run: (§1)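 Dosing by pin tool came one day after lung cancer cell lines were seeded in 1536-well plates, using either one drug or a fixed anchor-drug dose plus five library-drug doses (not always all listed) in √10 steps. After 5 days, nuclei were counted on 4× images. Relative viability is treated-well nuclei count divided by vehicle-well nuclei count, and values are medians of duplicate plates.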

Palbociclib + Bortezomib = compound: CC(=O)c1c(C)c2cnc(Nc3ccc(N4CCNCC4)cn3)nc2n(C2CCCC2)c1=O [Palbociclib] + CC(C)C[C@H](NC(=O)[C@H](Cc1ccccc1)NC(=O)c1cnccn1)B(O)O [Bortezomib] (partner 0.002 µM)
How it was run: as §1

Palbociclib + Dasatinib = compound: CC(=O)c1c(C)c2cnc(Nc3ccc(N4CCNCC4)cn3)nc2n(C2CCCC2)c1=O [Palbociclib] + Cc1nc(Nc2ncc(C(=O)Nc3c(C)cccc3Cl)s2)cc(N2CCN(CCO)CC2)n1 [Dasatinib] (partner 0.075 µM)
How it was run: as §1

Palbociclib + AZD7762 = compound: CC(=O)c1c(C)c2cnc(Nc3ccc(N4CCNCC4)cn3)nc2n(C2CCCC2)c1=O [Palbociclib] + NC(=O)Nc1cc(-c2cccc(F)c2)sc1C(=O)N[C@H]1CCCNC1 [AZD7762] (partner 0.2 µM)
How it was run: as §1

Cell Line | relative viability (Palbociclib + Trametinib; first compound 0.01 µM) | relative viability (Palbociclib + Trametinib; first compound 0.03162 µM) | relative viability (Palbociclib + Trametinib; first compound 0.1 µM) | relative viability (Palbociclib + Trametinib; first compound 0.3162 µM) | relative viability (Palbociclib + Trametinib; first compound 1 µM) | relative viability (Palbociclib + Bortezomib; first compound 0.01 µM) | relative viability (Palbociclib + Bortezomib; first compound 0.03162 µM) | relative viability (Palbociclib + Bortezomib; first compound 0.1 µM) | relative viability (Palbociclib + Bortezomib; first compound 0.3162 µM) | relative viability (Palbociclib + Bortezomib; first compound 1 µM) | relative viability (Palbociclib + Dasatinib; first compound 0.01 µM) | relative viability (Palbociclib + Dasatinib; first compound 0.1 µM) | relative viability (Palbociclib + Dasatinib; first compound 0.3162 µM) | relative viability (Palbociclib + Dasatinib; first compound 1 µM) | relative viability (Palbociclib + AZD7762; first compound 0.01 µM) | relative viability (Palbociclib + AZD7762; first compound 0.03162 µM) | relative viability (Palbociclib + AZD7762; first compound 0.1 µM) | relative viability (Palbociclib + AZD7762; first compound 0.3162 µM) | relative viability (Palbociclib + AZD7762; first compound 1 µM) | relative viability (Palbociclib + Dasatinib; first compound 0.03162 µM)
NCI-H596 | 0.793 | 0.632 | 0.875 | 0.757 | 0.954 | 1.06 | 0.984 | 0.998 | 1.01 | 1.04 | 0.606 | 0.551 | 0.599 | 0.613 | 1.15 | 0.96 | 1.1 | 1.01 | 1.09 | –
NCI-H647 | 0.502 | 0.305 | 0.428 | 0.346 | 0.272 | 0.963 | 0.814 | 0.696 | 0.851 | 0.472 | 0.177 | 0.143 | 0.163 | 0.139 | 0.645 | 0.3 | 0.368 | 0.326 | 0.197 | 0.142
NCI-H650 | 1.02 | – | 0.771 | 0.915 | 0.792 | 0.912 | – | 0.61 | 0.637 | 0.377 | 0.516 | 0.355 | 0.398 | 0.289 | 0.949 | – | 0.978 | 0.921 | 0.686 | 0.328
NCI-H727 | 0.366 | 0.336 | 0.397 | 0.387 | 0.403 | 0.963 | 0.649 | 0.491 | 0.465 | 0.469 | 0.342 | 0.299 | 0.242 | 0.218 | 0.593 | 0.511 | 0.584 | 0.447 | 0.461 | 0.302
NCI-H838 | 0.643 | 0.477 | 0.396 | 0.376 | 0.175 | 0.725 | 0.8 | 0.67 | 0.694 | 0.275 | 0.278 | 0.213 | 0.22 | 0.213 | 0.85 | 0.891 | 0.815 | 0.862 | 0.693 | 0.318
NCI-H1355 | 0.433 | 0.448 | 0.422 | 0.391 | 0.363 | 1.14 | – | 1.17 | 1.01 | 0.723 | 0.774 | 0.588 | 0.569 | 0.384 | 0.672 | 0.572 | 0.733 | 0.697 | 0.571 | 0.587
NCI-H1437 | 0.553 | 0.522 | 0.456 | 0.332 | 0.293 | 0.525 | 0.533 | 0.442 | 0.408 | 0.318 | 0.382 | 0.425 | 0.34 | 0.231 | 1.15 | 1.09 | 1.03 | 1.09 | 0.73 | 0.344
NCI-H1651 | 0.841 | 0.798 | 0.743 | 0.803 | 0.714 | 1 | 0.9 | 0.981 | 0.915 | 0.8 | 0.394 | 0.352 | 0.385 | 0.308 | 0.484 | 0.394 | 0.474 | 0.464 | 0.425 | 0.366
